{"source": "paper PMC11897524", "about": "(Frontiers in Pharmacology, 2025)", "experiment_in_all_cases": "MTT cytotoxicity assay", "assay_type_in_all_cases": "cell-based", "key": {"SLR-23 cells": {"system": "SLR-23 cells", "details": "Homo sapiens, cell growth, 48 h treatment, read-out: IC50 (μM) ± SD SLR-23", "description": "(§1) Human normal renal cortical proximal tubular epithelial cell line HK-2 and human renal carcinoma cell lines CAKI-2, SLR-23, 769-P, A704 and RCC4 were previously purchased from the American Type Culture Collection (ATCC, Manassas, VA, USA) or the European Collection of Cell Cultures (ECACC, Salisbury, United Kingdom). HK2, A704, and RCC4 cells were maintained in high glucose DMEM supplemented with 10% FBS and 1% penicillin/streptomycin. SLR-23 and […] cells were cultured in RPMI-1640 medium with 10% FBS and 1% penicillin/streptomycin. CAKI-2 cells were maintained in McCoy’s 5A medium supplemented with 10% FBS and 1% penicillin/streptomycin. All the cell lines were cultured at 37°C in a humidified atmosphere of 5% CO2 and 95% air.\n(§2) The effect of hit compounds on cytotoxicity was determined as previously reported ([Ding et al., 2020]). In brief, cells treated with the tested compounds were added with MTT reagent to form formazan crystals, and then the optical density (OD) values at 570 nm were determined after the crystals were dissolved in DMSO. […] Next, the values of IC50 of the selected compounds against more RCC cell lines were determined. The 5 × 10^3 cells in 100 μL culture medium were injected into each well of a 96-well plate and cultured overnight. Add different concentrations of compounds and incubate for 48 h. Then 100 μL of MTT (0.5 mg/mL) solution was added to the 96-well plate and maintained at 37°C for 4 h. Finally, 200 μL of DMSO was added and shaken for 10 min. The OD values at 570 nm were determined by a Synergy 4 microplate reader."}, "RCC4 cells": {"system": "RCC4 cells", "details": "Homo sapiens, cell growth, 48 h treatment, read-out: IC50 (μM) ± SD RCC4", "description": "as §1, §2"}, "[1]": {"system": "HK-2 normal renal cortical proximal tubular epithelial cells", "details": "Homo sapiens, Epithelial cell, normal cell line, 48 h treatment, read-out: IC50 (μM) ± SD HK-2", "description": "as §1, §2"}, "A704 cells": {"system": "A704 cells", "details": "Homo sapiens, cell growth, 48 h treatment, read-out: IC50 (μM) ± SD A704", "description": "as §1, §2"}, "769-P cells": {"system": "769-P cells", "details": "Homo sapiens, cell growth, 48 h treatment, read-out: IC50 (μM) ± SD 769-P", "description": "as §1, §2"}, "PBMCs": {"system": "PBMCs", "details": "PBMC, 48 h treatment, read-out: IC50 (μM) ± SD PBMCs", "description": "as §2"}}, "data": [{"compound": "CCS(=O)(=O)Cc1cnc(Oc2c(F)cc(F)cc2OCCCCOc2ccc(/C=C/c3cc(OC)cc(OC)c3)cc2)c(-c2cc(C)c3c(=O)[nH]ccn23)c1", "note": "[BST-4]", "values": [{"measurement": "IC50", "setting": "SLR-23 cells", "value": "1.52 ± 0.43", "unit": "µM"}, {"measurement": "IC50", "setting": "RCC4 cells", "value": "2.19 ± 0.64", "unit": "µM"}, {"measurement": "IC50", "setting": "[1]", "value": "> 10", "unit": "µM"}, {"measurement": "IC50", "setting": "A704 cells", "value": "1.07 ± 0.18", "unit": "µM"}, {"measurement": "IC50", "setting": "769-P cells", "value": "1.68 ± 0.32", "unit": "µM"}, {"measurement": "IC50", "setting": "PBMCs", "value": "> 10", "unit": "µM"}]}]}
